From patent publication US6967205B1, “Compounds with antibacterial and antiparasitic properties” (New Pharma Research Sweden AB, priority 1999, dated 2005)
≈ marks a conversion by molar mass, not a printed value.

Key:
Test in all cases: M.I.C. by broth dilution method (NCCLS 1988), gram-positive bacteria
Type in all cases: cell-based
[1] = tested on: Staphylococcus (ATCC 6538); conditions: ATCC6538, in vitro broth dilution, read-out: M.I.C. values Staph. (ATCC 6538)
Experimental: (§1) The antibacterial activity of the present compounds was investigated by in vitro evaluation of their M.I.C. (Minimum Inhibitory Concentration) values. The evaluation was conducted in complete accordance with the “Broth dilution method”, as outlined by the U.S. National Committee for Clinical Laboratory Standards “NCCLS 1988”.
(§2) Solutions of the present compounds were prepared by dissolving 0.01 g of a test compound in either 10% KOH (aq) or a 10% KOH/DMF mixture, after which sterile, distilled H2O was added up to a total volume of 10 ml, thereby yielding a test compound concentration of 1 000 μg/ml.
(§3) In this evaluation, the antibacterial activity of the present compounds and enrofloxacin as reference compound was tested against seven strains of gram-positive bacteria, namely Bacillus subtilus (ATCC 6633), Bacillus cereus, Streptococcus faecium, Micrococcus Luteus (ATCC 9341), Staph. aureus (ATCC 29737), Staph. epidermidis (ATCC 12228) and Staphylococcus (ATCC 6538).

Streptococcus faecium = conditions: Enterococcus faecium, in vitro broth dilution, read-out: M.I.C. values Streptoc. faecium
Experimental: as §1, §2, §3

Bacillus cereus = conditions: in vitro broth dilution
Experimental: as §1, §2, §3

[2] = tested on: Bacillus subtilus (ATCC 6633); conditions: ATCC6633, in vitro broth dilution
Experimental: as §1, §2, §3

[3] = tested on: Staph. epidermidis (ATCC 12228); conditions: Staphylococcus epidermidis, ATCC12228, in vitro broth dilution
Experimental: as §1, §2, §3

[4] = tested on: Micrococcus Luteus (ATCC 9341); conditions: ATCC9341, in vitro broth dilution, read-out: M.I.C. values Microc. Luteus
Experimental: as §1, §2, §3

[5] = tested on: Staph. aureus (ATCC 29737); conditions: Staphylococcus aureus, ATCC29737, in vitro broth dilution
Experimental: as §1, §2, §3

MIC [1] [µg/mL]	MIC (Streptococcus faecium) [µg/mL]	MIC (Bacillus cereus) [µg/mL]	MIC [2] [µg/mL]	MIC [3] [µg/mL]	MIC [4] [µg/mL]	MIC [5] [µg/mL]	SMILES
0.03 (≈ 0.0618 µM)	0.5 (≈ 1.03 µM)	0.06 (≈ 0.124 µM)	0.12 (≈ 0.247 µM)	0.06 (≈ 0.124 µM)	0.5 (≈ 1.03 µM)	0.12 (≈ 0.247 µM)	Cc1ccc(S(=O)(=O)N2CCN(c3cc4c(cc3F)c(=O)c(C(=O)O)cn4C3CC3)CC2)cc1 [JA 2, 1-cyclopropyl-6-fluoro-7-{4-[(4-methylphenyl)sulfonyl]-1-piperazinyl}-4-oxo-1,4-dihydro-3-quinolinecarboxylic acid]
0.06 (≈ 0.124 µM)	1 (≈ 2.06 µM)	0.25 (≈ 0.515 µM)	0.25 (≈ 0.515 µM)	0.12 (≈ 0.247 µM)	1 (≈ 2.06 µM)	≥ 0.12	O=C(O)c1cn(C2CC2)c2cc(N3CCN(S(=O)(=O)Cc4ccccc4)CC3)c(F)cc2c1=O [JA 9, 7-[4-(benzylsulfonyl)-1-piperazinyl]-1-cyclopropyl-6-fluoro-4-oxo-1,4-dihydro-3-quinolinecarboxylic acid]
0.25 (≈ 0.611 µM)	1 (≈ 2.44 µM)	0.12 (≈ 0.293 µM)	0.5 (≈ 1.22 µM)	0.25 (≈ 0.611 µM)	2 (≈ 4.88 µM)	0.25 (≈ 0.611 µM)	CS(=O)(=O)N1CCN(c2cc3c(cc2F)c(=O)c(C(=O)O)cn3C2CC2)CC1 [JA 10, 1-cyclopropyl-6-fluoro-7-[4-(methylsulfonyl)-1-piperazinyl]-4-oxo-1,4-dihydro-3-quinolinecarboxylic acid]
0.06 (≈ 0.123 µM)	0.5 (≈ 1.02 µM)	0.01 (≈ 0.0204 µM)	0.25 (≈ 0.511 µM)	0.06 (≈ 0.123 µM)	2 (≈ 4.09 µM)	0.25 (≈ 0.511 µM)	CCn1cc(C(=O)O)c(=O)c2cc(F)c(N3CCN(S(=O)(=O)c4ccc(OC)cc4)CC3)cc21 [JA 21, 1-ethyl-6-fluoro-7-{4-[(4-methoxyphenyl)sulfonyl]-1-piperazinyl}-4-oxo-1,4-dihydro-3-quinolinecarboxylic acid]
0.06 (≈ 0.123 µM)	1 (≈ 2.05 µM)	0.06 (≈ 0.123 µM)	0.12 (≈ 0.246 µM)	0.12 (≈ 0.246 µM)	2 (≈ 4.1 µM)	0.25 (≈ 0.513 µM)	O=C(O)c1cn(C2CC2)c2cc(N3CCN(c4ccc(Br)cn4)CC3)c(F)cc2c1=O [JA 40, 7-[4-(5-bromo-2-pyridinyl)-1-piperazinyl]-1-cyclopropyl-6-fluoro-4-oxo-1,4-dihydro-3-quinolinecarboxylic acid]
0.25 (≈ 0.527 µM)	1 (≈ 2.11 µM)	0.25 (≈ 0.527 µM)	0.5 (≈ 1.05 µM)	0.25 (≈ 0.527 µM)	2 (≈ 4.22 µM)	0.25 (≈ 0.527 µM)	O=C(O)c1cn(C2CC2)c2cc(N3CCN(c4cccc(Cl)c4S)CC3)c(F)cc2c1=O [JA 41, 7-[4-(3-chloro-2-sulfanylphenyl)-1-piperazinyl]-1-cyclopropyl-6-fluoro-4-oxo-1,4-dihydro-3-quinolinecarboxylic acid]
0.12 (≈ 0.293 µM)	0.5 (≈ 1.22 µM)	0.06 (≈ 0.147 µM)	0.12 (≈ 0.293 µM)	0.12 (≈ 0.293 µM)	1 (≈ 2.44 µM)	0.12 (≈ 0.293 µM)	O=C(O)c1cn(C2CC2)c2cc(N3CCN(c4cnccn4)CC3)c(F)cc2c1=O [JA 46, 1-cyclopropyl-6-fluoro-4-oxo-7-[4-(2-pyrazinyl)-1-piperazinyl]-1,4-dihydro-3-quinolinecarboxylic acid]
0.12 (≈ 0.309 µM)	2 (≈ 5.15 µM)	0.06 (≈ 0.154 µM)	0.12 (≈ 0.309 µM)	0.12 (≈ 0.309 µM)	2 (≈ 5.15 µM)	0.12 (≈ 0.309 µM)	O=C(O)c1cn(C2CC2)c2cc(NC3CCC(C(=O)O)CC3)c(F)cc2c1=O (centres unmarked) [JA 69, 7-[(4-carboxycyclohexyl)amino]-1-cyclopropyl-6-fluoro-4-oxo-1,4-dihydro-3-quinolinecarboxylic acid]
0.12 (≈ 0.303 µM)	2 (≈ 5.05 µM)	0.12 (≈ 0.303 µM)	0.25 (≈ 0.631 µM)	0.25 (≈ 0.631 µM)	1 (≈ 2.52 µM)	0.12 (≈ 0.303 µM)	O=C(O)c1ccc(CNc2cc3c(cc2F)c(=O)c(C(=O)O)cn3C2CC2)cc1 [JA 70, 7-[(4-carboxybenzyl)amino]-1-cyclopropyl-6-fluoro-4-oxo-1,4-dihydro-3-quinolinecarboxylic acid]
0.06 (≈ 0.161 µM)	1 (≈ 2.68 µM)	0.12 (≈ 0.321 µM)	0.12 (≈ 0.321 µM)	0.12 (≈ 0.321 µM)	2 (≈ 5.36 µM)	0.12 (≈ 0.321 µM)	O=C(O)c1cn(C2CC2)c2cc(NCCN3CCCCC3)c(F)cc2c1=O [JA 76, 1-cyclopropyl-6-fluoro-4-oxo-7-{[2-(1-piperidinyl)ethyl]-amino}-1,4-dihydro-3-quinolinecarboxylic acid]
0.12 (≈ 0.307 µM)	1 (≈ 2.56 µM)	0.06 (≈ 0.154 µM)	0.12 (≈ 0.307 µM)	0.12 (≈ 0.307 µM)	2 (≈ 5.12 µM)	0.06 (≈ 0.154 µM)	CN(CCCN)CCCNc1cc2c(cc1F)c(=O)c(C(=O)O)cn2C1CC1 [JA 102, 7-({3-[(3-aminopropyl)(methyl)amino]propyl}amino)-1-cyclopropyl-6-fluoro-4-oxo-1,4-dihydro-3-quinolinecarboxylic acid]
0.12 (≈ 0.265 µM)	1 (≈ 2.21 µM)	0.12 (≈ 0.265 µM)	0.12 (≈ 0.265 µM)	0.12 (≈ 0.265 µM)	2 (≈ 4.42 µM)	0.12 (≈ 0.265 µM)	O=C(O)c1cn(C2CC2)c2cc(N(Cc3ccco3)C(=O)c3cccs3)c(F)cc2c1=O [JA 124, 1-cyclopropyl-6-fluoro-7[(2-furylmethyl)(2-thienylcarbonyl)amino]-4-oxo-1,4-dihydro-3-quinolinecarboxylic acid]
0.12 (≈ 0.248 µM)	1 (≈ 2.07 µM)	0.06 (≈ 0.124 µM)	0.12 (≈ 0.248 µM)	0.06 (≈ 0.124 µM)	2 (≈ 4.14 µM)	0.12 (≈ 0.248 µM)	O=C(O)c1cn(C2CC2)c2cc(N(CCN3CCCCC3)C(=O)c3cccs3)c(F)cc2c1=O [JA 128, 1-cyclopropyl-6-fluoro-4-oxo-7-[[2-(1-piperidinyl)ethyl]-(2-thienylcarbonyl)amino]-1,4-dihydro-3-quinolinecarboxylic acid]
0.12 (≈ 0.232 µM)	0.5 (≈ 0.968 µM)	0.06 (≈ 0.116 µM)	0.12 (≈ 0.232 µM)	0.12 (≈ 0.232 µM)	2 (≈ 3.87 µM)	0.12 (≈ 0.232 µM)	COc1ccc(S(=O)(=O)N(CC2CCCO2)c2cc3c(cc2F)c(=O)c(C(=O)O)cn3C2CC2)cc1 (centres unmarked) [JA 135, 1-cyclopropyl-6-fluoro-7-[[(4-methoxyphenyl)sulfonyl](tetrahydro-2-furanylmethyl)amino]-4-oxo-1,4-dihydro-3-quinolinecarboxylic acid]
0.12 (≈ 0.224 µM)	0.5 (≈ 0.932 µM)	0.06 (≈ 0.112 µM)	0.12 (≈ 0.224 µM)	0.12 (≈ 0.224 µM)	2 (≈ 3.73 µM)	0.12 (≈ 0.224 µM)	O=C(O)c1cn(C2CC2)c2cc(N(CC3CCCO3)S(=O)(=O)c3ccc4ccccc4c3)c(F)cc2c1=O (centres unmarked) [JA 136, 1-cyclopropyl-6-fluoro-7-[(2-naphthylsulfonyl)(tetrahydro-2-furanylmethyl)amino]-4-oxo-1,4-dihydro-3-quinolinecarboxylic acid]
0.12 (≈ 0.233 µM)	1 (≈ 1.94 µM)	0.25 (≈ 0.486 µM)	0.12 (≈ 0.233 µM)	0.25 (≈ 0.486 µM)	2 (≈ 3.89 µM)	0.5 (≈ 0.972 µM)	O=C(O)c1cn(C2CC2)c2cc(N(CC3CCCO3)S(=O)(=O)CCc3ccccc3)c(F)cc2c1=O (centres unmarked) [JA 137, 1-cyclopropyl-6-fluoro-4-oxo-7-[(phenethylsulfonyl)(tetrahydro-2-furanylmethyl)amino]-1,4-dihydro-3-quinolinecarboxylic acid]
0.12 (≈ 0.251 µM)	1 (≈ 2.09 µM)	0.06 (≈ 0.125 µM)	0.12 (≈ 0.251 µM)	0.12 (≈ 0.251 µM)	2 (≈ 4.18 µM)	0.25 (≈ 0.523 µM)	O=C(O)c1cn(C2CC2)c2cc(N(CC3CCCO3)S(=O)(=O)C(F)(F)F)c(F)cc2c1=O (centres unmarked) [JA 138, 1-cyclopropyl-6-fluoro-4-oxo-7-{(tetrahydro-2-furanylmethyl)[(trifluoromethyl)sulfonyl]amino}-1,4-dihydro-3-quinolinecarboxylic acid]
0.06 (≈ 0.131 µM)	0.5 (≈ 1.1 µM)	0.06 (≈ 0.131 µM)	0.06 (≈ 0.131 µM)	0.12 (≈ 0.263 µM)	1 (≈ 2.19 µM)	0.12 (≈ 0.263 µM)	O=C(O)c1cn(C2CC2)c2cc(N(CC3CCCO3)C(=O)c3cccs3)c(F)cc2c1=O (centres unmarked) [JA 140, 1-cyclopropyl-6-fluoro-4-oxo-7-[(tetrahydro-2-furanylmethyl)(2-thienylcarbonyl)amino]-1,4-dihydro-3-quinolinecarboxylic acid]
0.12 (≈ 0.262 µM)	1 (≈ 2.18 µM)	0.12 (≈ 0.262 µM)	0.12 (≈ 0.262 µM)	0.12 (≈ 0.262 µM)	2 (≈ 4.36 µM)	0.25 (≈ 0.545 µM)	O=C(O)c1cn(C2CC2)c2cc(N(CC3CCCO3)c3cncc(Cl)n3)c(F)cc2c1=O (centres unmarked) [JA 141, 7-[(6-chloro-2-pyrazinyl)(tetrahydro-2-furanylmethyl)amino]-1-cyclopropyl-6-fluoro-4-oxo-1,4-dihydro-3-quinolinecarboxylic acid]
0.12 (≈ 0.262 µM)	1 (≈ 2.18 µM)	0.12 (≈ 0.262 µM)	0.12 (≈ 0.262 µM)	0.12 (≈ 0.262 µM)	> 2	0.25 (≈ 0.546 µM)	O=C(O)c1cn(C2CC2)c2cc(N(CC3CCCO3)c3cccc(Cl)n3)c(F)cc2c1=O (centres unmarked) [JA 143, 7-[(6-chloro-2-pyridinyl)(tetrahydro-2-furanylmethyl)amino]-1-cyclopropyl-6-fluoro-4-oxo-1,4-dihydro-3-quinolinecarboxylic acid]
